Measured values: US20240327493A1 (GEORGE MASON UNIVERSITY, priority 2023, published 2024)
“Also recorded” adds a separate entry of the source.

Columns and labels:
[1] = test system: human PBMCs co-cultured with OVCAR8 cells; test: Co-culture of OVCAR8 cells and stimulated human PBMCs, 1:10 OVCAR8:PBMC ratio; format: cell-based; conditions: for Immunosuppressive effect (reduction in TNFα/cytokines) compared with controls rPD-L1 and MN_Null: 1:10 OVCAR8:PBMC co-culture, FIG. 10D; for TNFα levels / IL-2 levels: 1:10 OVCAR8:PBMC, 24 hours, vs untreated co-culture control; for TNFα levels: ELISA, FIG. 10C; for IL-2 levels: FIG. 10B
Procedure: For this model, PBMCs and cancer cells were both stimulated prior to co-culture to promote expression of PD-1 and PD-L1, respectively.
OVCAR8 cells, generously provided by the Gottesman Lab (National Institutes of Health, Bethesda, MD, USA), and MDA-MB-231 cells (American Type Culture Collection, Rockville, MD, USA) were cultured in Gibco RPMI 1640 media (ThermoFisher Scientific, Cat. No. 11-875-093) supplemented with 10% Gibco fetal bovine serum (ThermoFisher Scientific, Cat. No. 10437028), and 1% penicillin/streptomycin (10,000 U/mL pen, 10 mg/mL strcp) from MilliporeSigma (Burlington, MA, USA, Cat. No. P4333). Cells were cultured at 37° C. and 5% CO2. Passage number was kept below 3 for co-culture assay. Human peripheral blood mononuclear cells were purchased frozen from […] PBMCs were thawed according to manufacturer's instructions one day before co-culture and cultured in the same media and conditions as cancer cell lines.
The next day, cells were stimulated with 100 ng/mL IFNγ and two vials of human PBMCs were thawed. On Day 3, concentrations of PBMCs and OVCAR8 cells (harvested from a control well) were measured using the QuadCount Automated Cell Counter. The concentration of PBMCs required for a 1:10 OVCAR8:PBMC ratio was calculated from the OVCAR8 concentration. PBMCs were plated on a separate 24-well plate (1 mL/well) and stimulated with 5 μg/mL of anti-CD3 and 5 μg/mL of anti-CD28 for 30 minutes before drug treatment. […] After 30 minutes, media was removed from OVCAR8 wells without treatment, and replaced with 1 mL of treated PBMCs. After 24 hours, the supernatants were collected from each well, and centrifuged at 10,000×g for 5 minutes to remove any remaining cells.
Briefly, samples from co-culture experiments with excess OVCAR8 ratios were diluted 1:10 in assay buffer, and samples from co-culture experiments with excess PBMC ratios were diluted 1:5 in assay buffer. Next, 10 μL of the diluted samples were mixed with 10 μL of an IL-2 antibody-oligonucleotide conjugate mixture and added to a 96-well working plate. Samples with excess OVCAR8 ratios were allowed to incubate overnight at 4° C. Samples with excess PBMCs were allowed to incubate for 1 hour at room temperature. Next, 80 μL of qPCR reaction mixture containing master mix and DNA ligase was added to each well. The plate was centrifuged at 2,500×g for 2 minutes. Samples were then added in triplicate (20 μL/well) to a 96-well PCR plate (ThermoFisher Scientific). PCR was run according to manufacturer's instructions using the QuantStudio 7 Pro Real-Time PCR System equipped with a 96-well, 0.2 mL block from ThermoFisher Scientific.
Remaining samples from experiments with excess PBMC ratios were analyzed using TNFα (Cat. No. 430204) ELISA MAX Deluxe Sets (BioLegend, San Diego, CA, USA) according to manufacturer's instructions. Briefly, 96-well Nunc™ MaxiSorp™ ELISA Plates (BioLegend, Cat. No. 423501) were coated with capture antibodies for TNFα and incubated overnight at 4° C. The next day, the plate was washed 4× with 1×PBS+0.05% Tween-20 (PBS-T). To block non-specific binding, 200 μL of assay dilutant buffer was added to each well and the plate was incubated at room temperature for 1 hour on a shaker. The plate was washed as before, and 100 μL of the samples or standards were added to each well in triplicate and incubated at room temperature for 2 hours on a shaker. The plate was washed 4× and 100 μL of detection antibody for TNFα was added to each well, and the plate was incubated at room temperature for 1 hour on a shaker. The plate was washed 4× and 100 μL of Avidin-HRP was added to each well, and the plate was incubated at room temperature for 30 minutes on a shaker.

[2] = human serum diluted 1:4 in RPMI, MALDI-TOF-MS, up to 6 hours
Procedure: Human serum was diluted 1:4 in Gibco RPMI 1640 media (ThermoFisher Scientific, Waltham, MA, USA, Cat. No. 11-875-093) for a total of 1 mL and incubated at 37° C. for 15 minutes prior to time course. Next, 1 μL of the peptide stock was added to warmed serum for a final concentration of […] in the master mix. The rest of the time course was performed at room temperature. For each time point, aliquots of 100 μL were removed from the master mix and added to 200 μL of 3% trifluoroacetic acid. Samples were incubated on ice for 15 minutes before centrifugation at 16,000×g for 2.5 minutes. Supernatants were transferred to a clean tube and prepared for desalting via C18 column by adding 100 μL of sample buffer (20% acetonitrile, 2% trifluoroacetic acid) to supernatants before storage at—20° C. overnight. Samples were then processed through Pierce C18 spin columns (ThermoFisher Scientific, Cat. No. 89870) according to the manufacturer's instructions. Desalted samples were dried under nitrogen and stored at −20° C. until mass spectrometry analysis.
For MALDI-TOF-MS analysis, serum stability samples were reconstituted in 200 μL of 0.1% formic acid. Samples were then diluted 1:10 in a MALDI matrix containing a 50 fmol/μL solution of Angiotensin I as a control. […]

CC[C@H](C)[C@@H]1NC(=O)[C@H](CCSC)NC(=O)[C@H](C)NC(=O)[C@H](CCCNC(=N)N)NC(=O)[C@@H](N)CSSC[C@@H](C(=O)O)NC(=O)[C@H]([C@@H](C)CC)NC(=O)[C@H](CCCNC(=N)N)N(C)C(=O)[C@H](CCCCN)NC(=O)[C@H](Cc2ccc(O)cc2)NC(=O)[C@H](CC(=O)O)NC(=O)[C@H](C)NC(=O)CNC(=O)CNC(=O)[C@H](Cc2ccc(O)cc2)NC(=O)[C@H](CO)NC1=O [SEQ ID NO. 5, CRAMISYGGADYKXIC]
Immunosuppressive effect (reduction in TNFα/cytokines) compared with controls rPD-L1 and MN_Null ([1]; listed as MN 1.4): less potent than recombinant PD-L1 | Immunosuppressive effect (reduction in TNFα/cytokines) compared with controls rPD-L1 and MN_Null ([1]; listed as MN1.4): not a significant difference in cytokine levels between the MN1.4 and rPD-L1 treatment groups; also recorded: recapitulated the biological effects of full-length PD-L1; also recorded: the same reduction in TNFα as rPD-L1 | TNFα levels ([1]; listed as MN 1.4): reduced in a dose-dependent manner | TNFα levels ([1]; listed as MN1.4): same pattern of T cell suppression was observed; also recorded: significantly decreased; also recorded: shown to decrease IL-2 and TNFα secretion; also recorded: A reduction in this cytokine was also observed | IL-2 levels ([1]; listed as MN 1.4): reduced in a dose-dependent manner | IL-2 levels ([1]; listed as MN1.4): same pattern of T cell suppression was observed; also recorded: significantly decreased; also recorded: shown to decrease IL-2 and TNFα secretion; also recorded: A dose-dependent reduction in IL-2 was observed | Degradation in serum [2]: still present after 6 hours in serum without significant degradation
